The numbers were not newly measured in paper PMC7926623 (Marine Drugs, 2021), which cites them from elsewhere.

In the data set the test system is rα6/α3β2β3 nAChR. The settings on record: cited from earlier work.

The IC50 is the concentration that gives 50% inhibition. For the substance α-Conotoxin TxIB, the IC50 is 28.4 nM.
